The compounds below were run against T1, Chymase (Homo sapiens, UniProt P23946) (assay: Inhibitory activity against human chymase (h-chymase)).
T1 sequence (P23946 whole entry): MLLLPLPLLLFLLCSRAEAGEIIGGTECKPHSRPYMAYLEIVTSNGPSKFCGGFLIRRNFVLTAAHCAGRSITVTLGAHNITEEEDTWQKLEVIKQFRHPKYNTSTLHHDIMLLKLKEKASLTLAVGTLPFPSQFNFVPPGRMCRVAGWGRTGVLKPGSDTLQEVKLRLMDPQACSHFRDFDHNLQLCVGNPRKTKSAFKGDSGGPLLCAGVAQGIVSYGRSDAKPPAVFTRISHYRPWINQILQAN
Compound CC(C)(C(=O)OC(=O)C(C)(C)C(CCc1ccccc1)NC(=O)c1ccc(C#N)cc1)C(CCc1ccccc1)NC(=O)c1ccc(C#N)cc1 (stereo unspecified) has an IC50 of 0.27 µM. CCCC(NC(=O)c1ccccc1)C(C)(C)C(=O)OC(=O)C(C)(C)C(CCC)NC(=O)c1ccccc1 (stereo unspecified) showed an IC50 of 0.058 µM. O=C(CC(CCc1ccccc1)NC(=O)c1ccccc1)OC(=O)CC(CCc1ccccc1)NC(=O)c1ccccc1 (stereo unspecified) was tested, and the IC50 was > 1000 µM. With CCCCCC(NC(=O)CCC)C(C)(C)C(=O)OC(=O)C(C)(C)C(CCCCC)NC(=O)CCC (stereo unspecified) the IC50 was 29 µM. CC(C)(C(=O)OC(=O)C(C)(C)C(NC(=O)c1ccc(C#N)cc1)C1CC=CCC1)C(NC(=O)c1ccc(C#N)cc1)C1CC=CCC1 (stereo unspecified) showed an IC50 of 0.13 µM. CCC(NC(=O)c1ccccc1)C(C)(C)C(=O)OC(=O)C(C)(C)C(CC)NC(=O)c1ccccc1 (stereo unspecified) was tested, and the IC50 was 0.037 µM. CC(C)(CNC(=O)c1ccccc1)C(=O)OC(=O)C(C)(C)CNC(=O)c1ccccc1 showed an IC50 of 3 µM. For O=C(CCNC(=O)c1ccccc1)OC(=O)CCNC(=O)c1ccccc1, the IC50 was 40 µM. CC(C)(C(=O)OC(=O)C(C)(C)C(NC(=O)c1ccc(C#N)cc1)c1ccccc1)C(NC(=O)c1ccc(C#N)cc1)c1ccccc1 (stereo unspecified) was tested, and the IC50 was 13 µM. For CCCCCCC(NC(=O)c1ccccc1)C(C)(C)C(=O)OC(=O)C(C)(C)C(CCCCCC)NC(=O)c1ccccc1 (stereo unspecified), the IC50 was 0.032 µM. For CCCCC(NC(=O)c1ccccc1)C(C)(C)C(=O)OC(=O)C(C)(C)C(CCCC)NC(=O)c1ccccc1 (stereo unspecified), the IC50 was 0.005 µM. Cc1ccccc1C(NC(=O)c1ccc(C#N)cc1)C(C)(C)C(=O)OC(=O)C(C)(C)C(NC(=O)c1ccc(C#N)cc1)c1ccccc1C (stereo unspecified) gave an IC50 of 8.7 µM. In the case of CC(C)(C(=O)OC(=O)C(C)(C)C(NC(=O)c1ccc(C#N)cc1)c1ccccc1Cl)C(NC(=O)c1ccc(C#N)cc1)c1ccccc1Cl (stereo unspecified), the IC50 is reported as 47 µM. In the case of CCCCCC(NC(=O)c1ccccc1)C(C)(C)C(=O)OC(=O)C(C)(C)C(CCCCC)NC(=O)c1ccccc1 (stereo unspecified), the IC50 is reported as 0.013 µM. CC(C)(C(=O)OC(=O)C(C)(C)C(CCc1ccccc1)NC(=O)c1ccccc1)C(CCc1ccccc1)NC(=O)c1ccccc1 (single isomer, unassigned; (+)) showed an IC50 of 0.091 µM. With CCCC(=O)NC(CCc1ccccc1)C(C)(C)C(=O)OC(=O)C(C)(C)C(CCc1ccccc1)NC(=O)CCC (stereo in doubt; 9 (-)) the IC50 was 0.0056 µM. With CC(C)(C(=O)OC(=O)C(C)(C)C(CCc1ccccc1)NC(=O)c1ccccc1)C(CCc1ccccc1)NC(=O)c1ccccc1 (stereo in doubt; 9) the IC50 was 0.02 µM. With CCCC(=O)NC(CCc1ccccc1)C(C)(C)C(=O)OC(=O)C(C)(C)C(CCc1ccccc1)NC(=O)CCC (stereo in doubt; 15) the IC50 was 2.6 µM.

What follows are compounds tested against T2, Cathepsin G (Homo sapiens, UniProt P08311) (assay: Inhibitory activity against human leukocyte cathepsin G (h-CG)).
T2 sequence (P08311 whole entry): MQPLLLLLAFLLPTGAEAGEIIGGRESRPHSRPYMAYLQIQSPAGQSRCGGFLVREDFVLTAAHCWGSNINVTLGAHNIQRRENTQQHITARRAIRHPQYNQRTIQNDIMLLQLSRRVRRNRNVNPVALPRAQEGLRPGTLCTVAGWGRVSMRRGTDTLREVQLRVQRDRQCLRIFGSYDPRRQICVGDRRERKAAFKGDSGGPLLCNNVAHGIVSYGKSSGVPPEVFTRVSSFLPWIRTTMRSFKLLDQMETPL
CCCCCC(NC(=O)CCC)C(C)(C)C(=O)OC(=O)C(C)(C)C(CCCCC)NC(=O)CCC (stereo unspecified) gave an IC50 of 1.6 µM. For CC(C)(C(=O)OC(=O)C(C)(C)C(NC(=O)c1ccc(C#N)cc1)C1CC=CCC1)C(NC(=O)c1ccc(C#N)cc1)C1CC=CCC1 (stereo unspecified), the IC50 was 0.069 µM. For O=C(CCNC(=O)c1ccccc1)OC(=O)CCNC(=O)c1ccccc1, the IC50 was 3.1 µM.

From ChEMBL document CHEMBL1132518, “Symmetrical anhydride-type serine protease inhibitors: structure-activity relationship studies of human chymase inhibitors” (Bioorg Med Chem Lett, 1999)
